Laboratory results taken from patent US4596811A, “Heterocyclic compounds, a process for their production and medicaments containing these compounds” (Ludwig Heumann & Co., GmbH, priority 1982, dated 1986).

target: T1, histamine-H2 receptors (isolated atrium) (Cavia porcellus, UniProt P47747); test: H2-antagonistic activity, pA2-values in vitro on the isolated atrium of guinea pigs; type: cell-based; conditions: isolated guinea pig atrium, H2 antagonism
T1 construct: in vitro on the isolated atrium of guinea pigs; from tissue; host or cells: isolated guinea pig atrium
T1 sequence (P47747 whole entry): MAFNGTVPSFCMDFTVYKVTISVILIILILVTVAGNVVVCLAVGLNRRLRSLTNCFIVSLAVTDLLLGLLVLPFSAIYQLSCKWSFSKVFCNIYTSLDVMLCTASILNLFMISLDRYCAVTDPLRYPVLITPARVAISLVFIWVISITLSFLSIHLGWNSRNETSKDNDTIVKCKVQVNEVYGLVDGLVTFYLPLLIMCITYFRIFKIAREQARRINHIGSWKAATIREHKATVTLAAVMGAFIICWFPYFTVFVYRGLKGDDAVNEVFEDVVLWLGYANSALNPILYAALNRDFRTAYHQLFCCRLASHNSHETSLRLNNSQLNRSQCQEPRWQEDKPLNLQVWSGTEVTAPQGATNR
Source text: An accepted method for determining H2-antagonistic activity is to determine the pA2-values in vitro on the isolated atrium of guinea pigs (cf. Ariens, Molecular Pharmacology, Vol. 1, Academic Press, New York, 1964).

SMILES | Kb [nM]
CN(C)Cc1cc(CSCCC(=N)NS(=O)(=O)c2ccc(N)cc2)cs1 [Example 2, N-(p-aminobenzene-sulfonyl)-3-[(2-N,N-dimethylaminomethylthienyl-4)-methylthio]-propionamidine] | 79.4
N=C(CCCCOc1cccc(CN2CCCCC2)c1)NS(=O)(=O)c1ccc(N)cc1 [Example 10] | 112
N=C(CCSCc1csc(CN2CCCCC2)c1)NS(=O)(=O)c1ccc(N)cc1 [Example 12] | 63.1
